Values belong to the compound of their own block, whether it stands above or below them.
How the values were obtained:
[1] = test system: carrageenin-induced podedema; assay: Effects on carrageenin-induced podedema in rats; type: in vivo, male Donryu rats; details: oral dose one hour before carrageenin; limb volume 3 hours after carrageenin; dose inhibiting by 30% relative to control
Procedure: Experimental Example 2 (effects on carrageen in induced podedema) Carrageenin (1%, 0.05 ml) dissolved in physiological saline was subcutaneously injected to the left hindlimb of male Donryu rats to induce podedema. The degree of podedema was evaluated by measuring the volume of the limb 3 hours after carrageenin administration. A test compound (1, 3, 10 or 30 mg/kg) was orally administered one hour before carrageenin administration, and suppression thereby was studied. Inhibitory activity was expressed by the dose (ED30) of the test compound necessary for inhibiting by 30% relative to the control group.

human cyclooxygenase-2 = target: T1, human cyclooxygenase-2 (Homo sapiens, UniProt P35354); assay: Inhibitory action on cyclooxygenase-2 (conversion of 14C arachidonic acid to PGH2)
T1 sequence (P35354 18-604): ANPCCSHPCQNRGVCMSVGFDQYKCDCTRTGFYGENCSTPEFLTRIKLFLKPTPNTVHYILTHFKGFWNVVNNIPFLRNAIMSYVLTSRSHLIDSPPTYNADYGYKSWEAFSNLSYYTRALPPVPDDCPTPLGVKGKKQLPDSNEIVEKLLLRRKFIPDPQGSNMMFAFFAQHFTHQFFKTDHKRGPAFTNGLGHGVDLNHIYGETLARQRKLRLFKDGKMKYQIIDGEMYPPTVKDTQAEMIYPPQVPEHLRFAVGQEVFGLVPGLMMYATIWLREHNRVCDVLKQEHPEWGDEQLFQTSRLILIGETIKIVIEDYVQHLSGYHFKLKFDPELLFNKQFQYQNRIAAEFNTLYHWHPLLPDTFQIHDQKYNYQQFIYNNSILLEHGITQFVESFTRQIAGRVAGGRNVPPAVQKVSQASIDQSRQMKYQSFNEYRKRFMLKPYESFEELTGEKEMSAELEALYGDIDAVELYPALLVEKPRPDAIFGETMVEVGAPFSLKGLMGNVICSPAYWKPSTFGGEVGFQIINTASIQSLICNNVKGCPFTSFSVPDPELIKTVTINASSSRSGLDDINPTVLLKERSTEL
Procedure: (§1) The enzymatic activity was determined from the percent conversion of ^14C arachidonic acid into prostaglandin H2 (PGH2) and the decomposed product thereof. That is, a test sample (20 μl), an enzyme solution (20 μl) and distilled water (10 μl) were added to 100 mM Tris-HCl buffer (pH 8, 140 μl) containing hematin (2 μM) and tryptophan (5 mM), and the mixture was thoroughly stirred, which was followed by preincubation at 24° C. for 5 minutes. Then, a ^14C arachidonic acid solution (10 μl) was added and the mixture was reacted at 24° C., whereafter a solution (40 μl) of ethyl ether/methanol/1M citric acid (30/4/1) iceooled to −20° C. was added to stop the reaction. The reaction mixture was centrifuged for 5 minutes at 3,000 rpm to give an ether layer which was placed on a thin plate, and developed with ethyl ether/methanol/acetic acid (90/2/0.1) to determine percent conversion (A) from arachidonic acid to PGH2 and the decomposed product thereof.
Inhibition (%)=(1A/B)×100
(§2) An enzyme prepared from human platelets was used as an enzyme solution of cyclooxygenase-1, and an enzyme expressed by a yeast, into which cDNA of human cyclooxygenase-2 had been introduced using a kit of Invitrogen Corp., was used as an enzyme solution of cyclooxygenase-2.

cyclooxygenase-1 = cyclooxygenase-1 (Homo sapiens, UniProt P23219); assay: Inhibitory action on cyclooxygenase-1 (conversion of 14C arachidonic acid to PGH2); type: biochemical; details: enzyme prepared from human platelets; preincubation 24° C. 5 minutes; read-out: IC50 COX-1
Chain of cyclooxygenase-1 (P23219 24-599): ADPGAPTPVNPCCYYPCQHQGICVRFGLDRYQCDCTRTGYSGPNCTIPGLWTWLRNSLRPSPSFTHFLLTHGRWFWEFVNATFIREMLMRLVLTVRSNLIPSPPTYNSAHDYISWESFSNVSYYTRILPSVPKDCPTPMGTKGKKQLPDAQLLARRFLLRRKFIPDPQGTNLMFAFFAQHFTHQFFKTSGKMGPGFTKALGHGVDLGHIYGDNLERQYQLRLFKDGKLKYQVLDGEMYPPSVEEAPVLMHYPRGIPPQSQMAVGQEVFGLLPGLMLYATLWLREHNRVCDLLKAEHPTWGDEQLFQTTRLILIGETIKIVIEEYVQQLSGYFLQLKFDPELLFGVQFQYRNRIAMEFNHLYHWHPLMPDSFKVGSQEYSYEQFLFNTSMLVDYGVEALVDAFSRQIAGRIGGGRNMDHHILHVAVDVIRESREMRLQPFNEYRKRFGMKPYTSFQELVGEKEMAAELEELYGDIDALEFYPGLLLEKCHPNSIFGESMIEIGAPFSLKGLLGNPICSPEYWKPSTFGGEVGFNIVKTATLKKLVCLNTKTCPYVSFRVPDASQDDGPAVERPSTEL
Procedure: as §1
Inhibition (%)=(1A/B)×100
as §2

SMILES: Cc1nc(C2CCCCC2)c(-c2ccc(S(N)(=O)=O)c(F)c2)o1 [Example 2, 5-(4-aminosulfonyl-3-fluorophenyl)-4-cyclohexyl-2-methyloxazole]
- carrageenin-induced podedema in rats, ED30 [1]: 5.5 mg/kg p.o.
- IC50 (human cyclooxygenase-2): 70 nM

SMILES: Cc1nc(-c2ccc(F)cc2)c(-c2ccc(S(N)(=O)=O)c(F)c2)o1 [Example 7, 5-(4-aminosulfonyl-3-fluorophenyl)-4-(4-fluorophenyl)-2-methyloxazole]
- IC50 (human cyclooxygenase-2): 30 nM
- IC50 (cyclooxygenase-1): 37000 nM

SMILES: Cc1nc(C2CCCCC2)c(-c2ccc(S(C)(=O)=O)c(F)c2)o1 [Example 3, 4-cyclohexyl-5-(3-fluoro-4-methylsulfonylphenyl)-2-methyloxazole]
- IC50 (human cyclooxygenase-2): 300 nM
- IC50 (cyclooxygenase-1): > 100000 nM

SMILES: COc1ccc2c(c1)c(CC(=O)O)c(C)n2C(=O)c1ccc(Cl)cc1 [Indomethacin, reference compound]
- carrageenin-induced podedema in rats, ED30 [1]: 2.9 mg/kg p.o.

More lines, now with the values ahead:

- IC50 (human cyclooxygenase-2): 160 nM
- IC50 (cyclooxygenase-1): > 100000 nM
SMILES: Cc1nc(C2CCCCC2)c(-c2cc(F)c(S(N)(=O)=O)c(F)c2)o1 [Example 6]

- IC50 (cyclooxygenase-1): 45000 nM
SMILES: Cc1nc(C2CCCCC2)c(-c2ccc(S(N)(=O)=O)cc2)o1 [Control 1, reference compound]

— US6362209B1, “Heterocyclic aromatic oxazole compounds and use thereof” (Japan Tobacco Inc., priority 1994, dated 2002)
